Assay results reported in ChEMBL document CHEMBL5518228, “DNA Interaction and Cleavage Modes of Anthraquinone-Fused Enediynes: A Study on Tiancimycins, Yangpumicins, and Their Semisynthetic Analogues” (J Med Chem, 2024).
The source made the active and inactive calls. The calls are words filed in the database; no cut-off is given here.

Legend:
[1] = tested on: Jurkat; test: Cytotoxicity against human Jurkat cells incubated for 72 hrs by CCK-8 assay; assay type: functional, cell-based
[2] = tested on: A549; test: Cytotoxicity against human A549 cells incubated for 72 hrs by CCK-8 assay; assay type: functional, cell-based; settings: A549, 72 h
[3] = tested on: Caco-2; test: Cytotoxicity against human Caco-2 cells incubated for 72 hrs by CCK-8 assay; assay type: functional, cell-based; settings: Caco-2, 72 h
[4] = Cytotoxicity against human KPL-4 cells incubated for 72 hrs by CCK-8 assay; assay type: functional, cell-based; settings: KPL4, 72 h
[5] = Cytotoxicity against human NCM460 cells incubated for 72 hrs by CCK-8 assay; assay type: toxicity, cell-based
[6] = Cytotoxicity against human HUVEC cells incubated for 72 hrs by CCK-8 assay; assay type: toxicity, cell-based
[7] = tested on: Supercoiled DNA; test: Induction of supercoiled pBR322 DNA (unknown origin) cleavage assessed as relaxation of supercoiled plasmid incubated for 1 hr in presence of DTT by SYBR I Green staining based agarose gel electrophoresis analysis; assay type: nucleic-acid assay
[8] = tested on: Supercoiled DNA; test: Induction of supercoiled pBR322 DNA (unknown origin) cleavage at 5 uM incubated for 1 hr under pH 5.5 to 9.5 condition by agarose gel electrophoresis analysis; assay type: nucleic-acid assay
[9] = tested on: Supercoiled DNA; test: Induction of supercoiled pBR322 DNA (unknown origin) cleavage at 5 uM incubated for 1 hr in presence of catalase under pH 7.4 condition by agarose gel electrophoresis analysis; assay type: nucleic-acid assay
[10] = tested on: Supercoiled DNA; test: Induction of supercoiled pBR322 DNA (unknown origin) cleavage at 5 uM incubated for 1 hr in presence of pyridine under pH 7.4 condition by agarose gel electrophoresis analysis; assay type: nucleic-acid assay
[11] = tested on: Supercoiled DNA; test: Induction of supercoiled pBR322 DNA (unknown origin) cleavage at 5 uM incubated for 1 hr in presence of methanol under pH 7.4 condition by agarose gel electrophoresis analysis; assay type: nucleic-acid assay
[12] = tested on: Supercoiled DNA; test: Induction of supercoiled pBR322 DNA (unknown origin) cleavage at 5 uM incubated for 1 hr in presence of ethanol under pH 7.4 condition by agarose gel electrophoresis analysis; assay type: nucleic-acid assay
[13] = tested on: Supercoiled DNA; test: Induction of supercoiled pBR322 DNA (unknown origin) cleavage at 5 uM incubated for 1 hr in presence of mannitol under pH 7.4 condition by agarose gel electrophoresis analysis; assay type: nucleic-acid assay
[14] = tested on: DNA; test: Induction of duplex DNA (unknown origin) cleavage assessed as DNA cleaved fragments at AT-rich region at 1 mM incubated for 6 hr in presence of DTT by agarose gel electrophoresis analysis; assay type: nucleic-acid assay
[15] = tested on: Calf thymus DNA; test: Binding affinity to calf thymus DNA assessed as change in gibbs free energy in presence of ethidium bromide by competitive binding based fluorescence spectroscopic analysis; assay type: nucleic-acid assay; settings: Bos taurus
[16] = tested on: DNA; test: Induction of duplex DNA (unknown origin) cleavage assessed as DNA cleaved fragments at AT-rich region at 100 uM incubated for 6 hr in presence of DTT by agarose gel electrophoresis analysis; assay type: nucleic-acid assay
[17] = tested on: Supercoiled DNA; test: Induction of supercoiled pBR322 DNA (unknown origin) cleavage at 100 nM incubated for 1 hr in presence of NADPH by agarose gel electrophoresis analysis; assay type: nucleic-acid assay
[18] = tested on: Supercoiled DNA; test: Induction of supercoiled pBR322 DNA (unknown origin) cleavage at 100 nM incubated for 1 hr in presence of DTT by agarose gel electrophoresis analysis; assay type: nucleic-acid assay
[19] = tested on: Supercoiled DNA; test: Induction of supercoiled pBR322 DNA (unknown origin) cleavage at 100 nM incubated for 1 hr in presence of GSH by agarose gel electrophoresis analysis; assay type: nucleic-acid assay
[20] = tested on: DNA; test: Induction of duplex DNA (unknown origin) cleavage assessed as DNA cleaved fragments at GC-rich region at 17.5 uM incubated for 1 hr in presence of FeSO4.7H2O by agarose gel electrophoresis analysis; assay type: nucleic-acid assay
[21] = Toxicity in BALB/c mouse xenografted with human KPL-4 cells assessed as body weight loss at 0.05 mg/kg,iv administrated once per week for 2 weeks; assay type: organism-based; settings: in vivo, 336 h
[22] = tested on: Supercoiled DNA; test: Induction of supercoiled pBR322 DNA (unknown origin) cleavage at 0.5 uM incubated for 1 hr under pH 5.5 to 9.5 condition by agarose gel electrophoresis analysis; assay type: nucleic-acid assay
[23] = tested on: Supercoiled DNA; test: Induction of supercoiled pBR322 DNA (unknown origin) cleavage at 0.5 uM incubated for 1 hr in presence of pyridine under pH 7.4 condition by agarose gel electrophoresis analysis; assay type: nucleic-acid assay
[24] = tested on: Supercoiled DNA; test: Induction of supercoiled pBR322 DNA (unknown origin) cleavage at 0.5 uM incubated for 1 hr in presence of catalase under pH 7.4 condition by agarose gel electrophoresis analysis; assay type: nucleic-acid assay
[25] = tested on: Supercoiled DNA; test: Induction of supercoiled pBR322 DNA (unknown origin) cleavage at 0.5 uM incubated for 1 hr in presence of methanol under pH 7.4 condition by agarose gel electrophoresis analysis; assay type: nucleic-acid assay
[26] = tested on: Supercoiled DNA; test: Induction of supercoiled pBR322 DNA (unknown origin) cleavage at 0.5 uM incubated for 1 hr in presence of ethanol under pH 7.4 condition by agarose gel electrophoresis analysis; assay type: nucleic-acid assay
[27] = tested on: Supercoiled DNA; test: Induction of supercoiled pBR322 DNA (unknown origin) cleavage at 0.5 uM incubated for 1 hr in presence of mannitol under pH 7.4 condition by agarose gel electrophoresis analysis; assay type: nucleic-acid assay
[28] = tested on: Supercoiled DNA; test: Induction of supercoiled pBR322 DNA (unknown origin) cleavage at 100 nM incubated for 1 hr in presence of adriamycin by agarose gel electrophoresis analysis; assay type: nucleic-acid assay
[29] = tested on: Supercoiled DNA; test: Induction of supercoiled pBR322 DNA (unknown origin) cleavage at 100 nM incubated for 1 hr in presence of actinomycin D by agarose gel electrophoresis analysis; assay type: nucleic-acid assay
[30] = tested on: Supercoiled DNA; test: Induction of supercoiled pBR322 DNA (unknown origin) cleavage at 100 nM incubated for 1 hr in presence of 10 uM of adriamycin by agarose gel electrophoresis analysis; assay type: nucleic-acid assay
[31] = tested on: Supercoiled DNA; test: Induction of supercoiled pBR322 DNA (unknown origin) cleavage at 100 nM incubated for 1 hr in presence of 10 uM of actinomycin D by agarose gel electrophoresis analysis; assay type: nucleic-acid assay
[32] = tested on: Supercoiled DNA; test: Induction of supercoiled pBR322 DNA (unknown origin) cleavage at 100 nM incubated for 1 hr in presence of bleomycin by agarose gel electrophoresis analysis; assay type: nucleic-acid assay
[33] = tested on: Supercoiled DNA; test: Induction of supercoiled pBR322 DNA (unknown origin) cleavage at 100 nM incubated for 1 hr in presence of bleomycin and ferrous ion by agarose gel electrophoresis analysis; assay type: nucleic-acid assay
[34] = tested on: Calf thymus DNA; test: Binding affinity to calf thymus DNA assessed as DNA insertion by measuring change in gibbs free energy by fluorescence spectroscopic analysis; assay type: nucleic-acid assay; settings: Bos taurus
[35] = tested on: Calf thymus DNA; test: Binding affinity to calf thymus DNA assessed as DNA insertion by measuring change in gibbs free energy in presence of triggered form of compound by fluorescence spectroscopic analysis; assay type: nucleic-acid assay; settings: Bos taurus
[36] = tested on: Supercoiled DNA; test: Induction of supercoiled pBR322 DNA (unknown origin) cleavage at 0.5 uM incubated for 1 hr under pH 7.5 condition by agarose gel electrophoresis analysis; assay type: nucleic-acid assay

| Compound | IC50 [1] | IC50 [2] | IC50 [3] | IC50 [4] | IC50 at 72 h [5] | IC50 at 72 h [6] | EC50 [7] | deltaG [15] | Activity [16] | other results |
| --- | --- | --- | --- | --- | --- | --- | --- | --- | --- | --- |
| COc1ccc2c(c1O)C(=O)c1c3c(cc(O)c1C2=O)[C@@]12O[C@@]1([C@](C)(O)[C@H](O)C(=O)O)[C@H](C#C/C=C\C#C[C@H]2O)N3 | 1 nM | 10.1 nM | 158 nM | 0.24 nM | 0.6 nM | 6.8 nM | 760 nM | -8.48 kcal/mol | – | Activity [8]: Active; Activity [9]: Active; Activity [10]: Active; Activity [11]: Active; Activity [12]: Active; Activity [13]: Active; Activity [14]: inactive |
| C[C@@H](O)C12O[C@]13c1cc(O)c4c(c1N[C@H]2C#C/C=C\C#C[C@H]3O)C(=O)c1c(O)cccc1C4=O (stereo partly specified) | 0.009 nM | 0.06 nM | 1.4 nM | 0.006 nM | 0.07 nM | 0.2 nM | 75.5 nM | -8.31 kcal/mol | Active | – |
| O=C1c2ccccc2C(=O)c2c3c(cc(O)c21)[C@@]12O[C@@]1([C@H](O)CO)[C@H](C#C/C=C\C#C[C@H]2O)N3 | 0.01 nM | 0.2 nM | 5.4 nM | 0.004 nM | 0.1 nM | 0.3 nM | 83.3 nM | -8.31 kcal/mol | Active | Activity [17]: inactive; Activity [18]: Active; Activity [19]: Active |
| COC(=O)[C@@H](O)[C@@](C)(O)[C@@]12O[C@]13c1cc(O)c4c(c1N[C@H]2C#C/C=C\C#C[C@H]3O)C(=O)c1c(O)c(OC)cc(-n2[nH]c(=O)n(-c3ccccc3)c2=O)c1C4=O | 44.7 nM | 499 nM | 613 nM | 23.7 nM | 227 nM | 946 nM | 33.2 nM | – | inactive | – |
| COc1ccc2c(c1OC)C(=O)c1c3c(cc(OC)c1C2=O)[C@@]12O[C@@]1([C@@H](C)O)[C@H](C#C/C=C\C#C[C@H]2O)N3 | 117 nM | 787 nM | 635 nM | 32.8 nM | 382 nM | 525 nM | > 1000 nM | – | – | Activity [14]: inactive |
| BLEOMYCIN | – | – | – | – | – | – | – | – | – | Activity [20]: Active |
| COc1cc(Br)c2c(c1O)C(=O)c1c3c(cc(O)c1C2=O)[C@@]12O[C@@]1([C@@H](C)O)[C@H](C#C/C=C\C#C[C@H]2O)N3 | 2.6 nM | 11 nM | 154 nM | 0.31 nM | 3.3 nM | 22.7 nM | 79 nM | -8.13 kcal/mol | Active | – |
| COC(=O)[C@@H](O)[C@@](C)(O)[C@@]12O[C@]13c1cc(O)c4c(c1N[C@H]2C#C/C=C\C#C[C@H]3O)C(=O)c1cc(OC)ccc1C4=O | 0.1 nM | 2.8 nM | 6.8 nM | 0.5 nM | 2.8 nM | 15.5 nM | 583 nM | -7.99 kcal/mol | Active | – |
| COc1ccc2c(c1O)C(=O)c1c3c(cc(O)c1C2=O)[C@@]12O[C@@]1([C@@H](C)O)[C@H](C#C/C=C\C#C[C@H]2O)N3 | 0.05 nM | 0.04 nM | 0.4 nM | 0.02 nM | 0.2 nM | 0.2 nM | 38.9 nM | -8.26 kcal/mol | Active | Activity [21]: Toxic; Activity [17]: inactive; Activity [18]: Active; Activity [22]: Active; Activity [23]: Active; Activity [24]: Active; Activity [25]: Active; Activity [26]: Active; Activity [27]: Active; Activity [28]: inactive; Activity [29]: inactive; Activity [30]: inactive; Activity [31]: inactive; Activity [32]: Active; Activity [33]: Active; deltaG [34]: -20.5 kcal/mol; deltaG [35]: -17.8 kcal/mol |
| COc1cccc2c1C(=O)c1c(O)c3c(c(O)c1C2=O)C[C@@](O)(C(=O)CO)C[C@@H]3O[C@H]1C[C@H](N)[C@H](O)[C@H](C)O1 | – | – | – | – | – | – | – | -9.68 kcal/mol | – | – |
| O=C1c2cccc(O)c2C(=O)c2c3c(cc(O)c21)[C@@]12O[C@@]1([C@H](O)CO)[C@H](C#C/C=C\C#C[C@H]2O)N3 | 0.02 nM | 0.2 nM | 13.5 nM | 0.01 nM | 0.2 nM | 0.8 nM | 261 nM | -8.41 kcal/mol | Active | – |
| COC1=C(C(=O)O)[C@H](C)[C@@]23O[C@]24c2cc(O)c5c(c2N[C@H]3C#C/C=C\C#CC14)C(=O)c1c(O)ccc(O)c1C5=O | – | – | – | – | – | – | – | 2.62 kcal/mol | – | deltaG [34]: -18.1 kcal/mol; deltaG [35]: -13.6 kcal/mol |
| COC(=O)[C@@H](O)[C@@](C)(O)[C@@]12O[C@]13c1cc(O)c4c(c1N[C@H]2C#C/C=C\C#C[C@H]3O)C(=O)c1c(ccc(OC)c1O)C4=O | 0.4 nM | 0.1 nM | 0.4 nM | 0.04 nM | 0.4 nM | 0.4 nM | 248 nM | -8.56 kcal/mol | Active | Activity [36]: Active; Activity [23]: Active; Activity [24]: Active; Activity [25]: Active; Activity [26]: Active; Activity [27]: Active |
| COC1=C(C(=O)O)[C@H](C)[C@@]23O[C@]24c2cc(O)c5c(c2N[C@H]3C#C/C=C\C#CC14)C(=O)c1ccccc1C5=O | – | – | – | – | – | – | – | -3.79 kcal/mol | – | – |
